# From US20260183393A1, “IMMUNOSUPPRESSANT-RESISTANT MODIFIED ALLOGENEIC MODIFIED IMMUNE CELLS AND METHODS FOR USE THEREOF” (Beam Therapeutics Inc., priority 2023, published 2026)
# How the values were obtained:
# [1] = test system: Raji; test: Cell growth kinetics with rapamycin, Raji; type: cell-based, human; settings: RPM at different concentrations
# Method: (§1) FIGS. 26A to 26E provide histograms and plots showing malignant B cell lines were sensitive to Rapamycin treatment in vitro. FIG. 26A provides histograms showing geometric median fluorescent intensity (MFI) of phosphorylated mTOR (pS2448), S6 (pS235/[…]) and 4EBP1 (pT36/T45) in JeKo-1, Raji and Nalm6 cell lines, as well as primary human monocytes and bulk lymphocytes. FIGS. 26B to 26D relate to an experiment where JeKo-1, Raji and Nalm6 cells were treated with DMSO or Rapamycin (RPM) and then analyzed for phosphorylation level of mTOR (FIG. 26B), S6 (FIG. 26C) and 4EBP1 (FIG. 26D). FIG. 26E provides plots showing JeKo-1, Raji and Nalm6 cell growth kinetics after treatment with DMSO or RPM at different concentrations. Symbols indicate mean and error bars show ±s.e.m.
# [2] = test system: mTOR and downstream substrates S6Rp and 4E-BP1; test: Phosphorylation of mTOR, S6 and 4EBP1 in malignant B cell lines; type: cell-based, human; settings: JeKo-1, Raji and Nalm6 cells treated with DMSO or RPM
# Method: as §1
# Live cells were discriminated by staining negative for Fixable Viability Dye eFluor780 (eBioscience). CountBright Counting Beads were used according to the manufacturer's instructions to determine concentration of immune cells from whole blood. Intracellular cytokines were detected using Cell Fixation & Cell Permeability Kit (Invitrogen) following manufacturer's protocol with anti-human antibodies from Biolegend: TNF-a (MAb11), IFN-g (4S.B3), IL-2 (MQH-17H12) and GM-CSF (BVD2-21C11). […] Data was analyzed using FlowJo software v.10 (Tree Star).
smiles,measurement,setting,value
"CO[C@H]1C[C@@H]2CC[C@@H](C)[C@@](O)(O2)C(=O)C(=O)N2CCCC[C@H]2C(=O)O[C@H]([C@H](C)C[C@@H]2CC[C@@H](O)[C@H](OC)C2)CC(=O)[C@H](C)/C=C(\C)[C@@H](O)[C@@H](OC)C(=O)[C@H](C)C[C@H](C)/C=C/C=C/C=C/1C [rapamycin, Rapamycin]",in vitro proliferation,[1],inhibited in vitro proliferation
same,protein phosphorylation of mTOR and downstream substrates S6Rp and 4E-BP1,[2],attenuated protein phosphorylation
